Measured values taken from US20160338928A1, “SKIN ENGAGING MEMBER COMPRISING A CYCLOHEXANECARBOXAMIDE DERIVATIVE” (The Gillette Company, priority 2015, published 2016).

Assays:
[1] = concentration where the cooling effect could be clearly recognized; reported by Emberger and Hopp 1987; cited from earlier work
human TRPM8 = molecular target: T1, human TRPM8 (Homo sapiens, UniProt Q7Z2W7); experiment: TRPM8 activation, FLIPR calcium flux in HEK cells stably transfected with human TRPM8; format: cell-based; conditions: amino acid derived side chain (alanine) in R (28) and S (776) configuration
T1 construct: expressed in transfected cells
T1 sequence (Q7Z2W7 whole entry): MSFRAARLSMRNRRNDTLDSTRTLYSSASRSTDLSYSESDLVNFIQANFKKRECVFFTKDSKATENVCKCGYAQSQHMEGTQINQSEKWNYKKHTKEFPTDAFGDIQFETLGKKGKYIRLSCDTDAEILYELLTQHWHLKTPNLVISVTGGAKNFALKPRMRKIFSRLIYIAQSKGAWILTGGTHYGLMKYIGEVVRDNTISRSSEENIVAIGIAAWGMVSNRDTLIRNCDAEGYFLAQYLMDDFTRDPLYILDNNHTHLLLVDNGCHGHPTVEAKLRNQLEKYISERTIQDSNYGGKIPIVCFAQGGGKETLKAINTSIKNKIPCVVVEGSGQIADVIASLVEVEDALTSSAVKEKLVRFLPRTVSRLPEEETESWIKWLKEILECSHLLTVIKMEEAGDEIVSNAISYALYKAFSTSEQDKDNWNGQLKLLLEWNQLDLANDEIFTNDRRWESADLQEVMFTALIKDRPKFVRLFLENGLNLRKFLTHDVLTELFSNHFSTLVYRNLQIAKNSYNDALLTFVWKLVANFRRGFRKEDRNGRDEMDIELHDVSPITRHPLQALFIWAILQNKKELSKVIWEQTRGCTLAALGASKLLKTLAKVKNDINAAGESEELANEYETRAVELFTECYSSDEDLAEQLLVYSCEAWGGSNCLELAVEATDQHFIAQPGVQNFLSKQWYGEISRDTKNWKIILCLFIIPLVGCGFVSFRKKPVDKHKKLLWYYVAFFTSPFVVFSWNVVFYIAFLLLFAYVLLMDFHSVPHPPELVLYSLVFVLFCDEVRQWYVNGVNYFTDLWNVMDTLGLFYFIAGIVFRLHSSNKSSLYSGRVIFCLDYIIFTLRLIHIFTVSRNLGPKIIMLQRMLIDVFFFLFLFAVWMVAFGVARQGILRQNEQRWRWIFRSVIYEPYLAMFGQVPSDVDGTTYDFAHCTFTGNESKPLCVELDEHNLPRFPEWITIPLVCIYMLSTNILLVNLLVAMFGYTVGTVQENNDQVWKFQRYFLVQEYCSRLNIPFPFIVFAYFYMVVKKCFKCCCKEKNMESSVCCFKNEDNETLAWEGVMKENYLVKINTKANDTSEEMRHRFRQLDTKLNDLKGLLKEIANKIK
Protocol: […] (human embryonic kidney) cells stably transfected with human TRPM8 are grown in 15 ml growth medium (high glucose DMEM (Dulbecco's Modification of Eagle's Medium) supplemented with 10% FBS (fetal bovine serum), 100 ug/ml penicillin/streptomycin, 5 μg/ml blasticindin, and 100 μg/ml zeocin) in a 75 CM^2 flask for 3 days at 37° C. in a mammalian cell culture incubator set at 5% CO2. Cells are detached with addition of 2 ml of trypsin-EDTA buffer (GIBCO® 25200, Invitrogen) for about 2-3 min. Trypsin is inactivated by addition of 8 ml growth medium. Cells are transferred to a 50 ml tube and centrifuged at 850 rpm for 3 minutes to remove medium. After centrifugation, a pellet of cells is formed in the bottom of the tube separating them from the supernatant solution. […] (Fluo-4 AM is a fluorescent dye used for quantifying cellular Ca^2+ concentrations in the 100 nM to 1 microM range.) At the end of 30 minutes, 45 ml of assay buffer (1×HBSS (Hank's Balanced Salt Solution), 20 mM HEPES (4-(2-Hydroxyethyl)-1-piperazineethanesulfonic acid)) is added to wash cells and the resulting mixture is then centrifuged at 850 rpm for 3 minutes to remove excess buffer and Fluo-4 AM calcium indicator. […]

activity towards the receptor (human TRPM8) | SMILES | cooling threshold [1]
 | CC(C)[C@@H]1CC[C@@H](C)C[C@@H]1O [Compound 1-neomenthol, 1-neomenthol] | about 3,000 ppb
excellent activity | CC(C)[C@@H]1CC[C@@H](C)C[C@H]1C(=O)NCC(NC(=O)[C@@H](C)N)c1ccccc1 (some centres unmarked) [Compound 28] | 
excellent activity | COc1ccc(NC(=O)[C@@H]2C[C@H](C)CC[C@H]2C(C)C)c(NC(=O)[C@H](C)N)c1 [Compound 776] | 
 | CC(C)[C@@H]1CC[C@@H](C)C[C@H]1O [L-menthol] | about 800 ppb
 | CC(C)[C@@H]1CC[C@@H](C)C[C@@H]1O [d-neomenthol] | about 25,000 ppb
